# Assay results from paper PMC8764033, “Single-molecule analysis of specificity and multivalency in binding of short linear substrate motifs to the APC/C” (Nature Communications, 2022).
# Several values for one entry are separate records, joined by “and”; a condition that tells them apart may be missing. Equal entries are not always repeated. Where a SMILES comes first, the peptide text is derived from it.
# Experiments:
# APC/C^Cdc20 = molecular target: T1, APC/C^Cdc20 (Saccharomyces cerevisiae, UniProt P26309+P53068); assay: SMOR assay, yeast APC/C^Cdc20; type: binding; conditions: for mean dwell time: representative of two independent experiments, ± SE, ligand ≤1 nM, buffer C + BSA
# T1 construct: APC/C was purified from yeast cells; made in house; host or cells: APC/C from S. cerevisiae W303 strain NHY13 (Cdc16-TAP, Apc1-GFP, cdh1 deleted); Cdc20 from Sf9 (baculovirus)
# Description: (§1) Yeast strains were derivatives of W303 and are listed in Supplementary Table 2. For APC/C purification, we used a strain carrying Cdc16-TAP and lacking Cdh1 (DOM1126); in most experiments, the strain also carried Apc1-GFP (NHY13). Yeast were grown in YPD media to OD600 = 0.8, collected and flash-frozen. Cells were lysed by bead beating in lysis buffer A (50 mM HEPES pH 7.5, 150 mM KCl, 10% glycerol, 0.2% Triton X-100, 63 µM B-glycerophosphate, 48 µM sodium fluoride, 1 µg ml^−1 pepstatin A, 1 µg ml^−1 leupeptin, 1 µg ml^−1 aprotinin, 1 mM PMSF, 1 mM DTT, 0.5 mM EDTA) and APC/C was purified using magnetic IgG beads. The beads were washed using wash buffer A (20 mM HEPES pH 7.5, 150 mM KCl, 10% Glycerol, 0.05% Triton X-100). After incubation with purified Cdh1 or Cdc20, the APC/C was cleaved off the beads with TEV protease in wash buffer A with 0.05% Tween-20 (for single-molecule studies) or 0.05% Triton X-100 (for ensemble assays such as ubiquitylation) and used immediately.
# (§2) For all SMOR experiments, 24 × 50 mm high precision glass coverslips (Bioscience Tools) and drilled microscope slides were passivated with a combination of PEG and PEG-biotin (coverslips) or PEG only (slides) following a previously published protocol for SiMPull[31]. Reaction chambers (~20 µl) were created using double-sided tape and epoxy. Protein was immobilized on the surface with 0.2 mg ml^−1 NeutrAvidin in buffer C (20 mM HEPES pH 7.5, 150 mM KCl, 10% glycerol, 0.05% Tween-20, 1 mM DTT). Excess NeutrAvidin was washed away and incubated with either biotin-conjugated mouse monoclonal anti-Strep-Tag II antibody (LSBio, Cat. No. LS-C203632-100) or biotin-conjugated rabbit polyclonal anti-GFP antibody (Rockland, Cat. No. 600-406-215) diluted in buffer C + BSA (0.1 mg ml^−1; Molecular Biology Grade Bovine Serum Albumin). Activator WD40 and activated APC/C (typically 50 µl containing about 65 ng APC/C, of which only a small fraction is immobilized on the glass) were immobilized using anti-Strep-Tag II, while APC/C alone was immobilized with anti-GFP. SMOR results were similar when performed in the buffer (wash buffer B) used in polarization anisotropy.
# (§3) To capture dynamic protein–protein interactions, dye-labeled substrate diluted in buffer C + BSA was added to the chamber containing immobilized proteins. Interactions were imaged by TIRF microscopy as described below. For optimal signal-to-noise ratio, peptide concentration was no greater than 1 nM. Protein substrates included Hsl1 aa 667–872 and a C-terminal HaloTag followed by a TAP tag, and were produced by translation in rabbit reticulocyte lysates using TnT Quick Coupled Transcription/Translation System (Promega) (see Supplementary Table 5 for plasmids). Protein was purified with magnetic IgG beads and labeled on the bead with JF549 or JF646 dye so that unbound dye could be washed away. Purified dye-labeled protein was then cleaved from the beads using TEV protease. Before adding substrate to the reaction chamber, oxygen scavenging reagents were added (10 nM protocatechuate-3,4-dioxygenase, 2.5 mM protocatechuic acid, and 1 mM Trolox)[41]. A detailed description of the SMOR analysis pipeline is found in Supplementary Note 1.
# (§4) Microscopy was performed with a Nikon Eclipse TE2000-E with Perfect Focus with a 100 × 1.49na oil, Apo TIRF DIC N2, 0.13-0.2, WD0.12 objective. Movies were recorded using the Andor iXon DU-897E-CSO. For visualizing GFP-tagged protein, a 491 nm laser was used with an ET525/50 (Chroma) filter for emission. For visualizing JF549-labeled substrate, a 561 nm laser was used with an ET595/50 (Chroma) filter for emission. For visualizing all Cy5-labeled peptides and JF646-labeled substrates, a 640 nm laser was used with an ET685/70 filter (Chroma) for emission. Initially, for each substrate tested, we acquired movies at multiple intervals to deduce the optimal interval to decrease bleaching. µManager version 2.0 was used to control the microscope and record time-lapse movies.
# APC/C^apo = molecular target: T2, APC/C^apo (Saccharomyces cerevisiae, UniProt P38042+P53068); assay: SMOR assay, yeast APC/C^apo (no activator); type: binding; conditions: Supplementary Table 1, single movie
# T2 construct: APC/C was purified from yeast cells; made in house; host or cells: S. cerevisiae W303 strain NHY13 (Cdc16-TAP, Apc1-GFP, cdh1 deleted)
# Description: as §1, §2, §3, §4
# [1] = Supplementary Table 1, replicate 1 (movie listed first)
# [2] = Supplementary Table 1, replicate 2 (movie listed second)
# [3] = Supplementary Table 1, replicate 1
# [4] = Supplementary Table 1, replicate 2
molecule,measurement,setting,value
CC(C)C[C@H](NC(=O)[C@H](C)NC(=O)[C@H](CCCNC(=N)N)NC(=O)[C@H](CCCNC(=N)N)NC(=O)[C@@H]1CCCN1C(=O)[C@H](CCCCN)NC(=O)[C@H](CO)NC(=O)[C@H](CC(=O)O)NC(=O)[C@@H](N)CCC(N)=O)C(=O)N[C@H](C(=O)N[C@@H](CC(=O)O)C(=O)N[C@H](C(=O)N1CCC[C@H]1C(=O)N[C@H](C(=O)N[C@@H](CC(N)=O)C(=O)N[C@@H](CC(N)=O)C(=O)N[C@@H](CC(N)=O)C(=O)N1CCC[C@H]1C(=O)N[C@@H](CC(C)C)C(=O)N[C@@H](CO)C(=O)N[C@@H](CCC(N)=O)C(=O)N[C@@H](CCCCN)C(=O)O)C(C)C)C(C)C)[C@@H](C)O [Clb5 D box] (H-QDSKPRRALTDVPVNNNPLSQK-OH; N-terminus and C-terminus assumed),Dwell Time,APC/C^Cdc20; [1],0.179 ± 0.008 s
same,Dwell Time,APC/C^Cdc20; [2],0.207 ± 0.008 s
same,mean dwell time,APC/C^Cdc20,0.207 ± 0.008 s and 0.207 s
same,Dwell Time (in words),APC/C^apo,no binding
CC[C@H](C)[C@H](NC(=O)[C@H](CC(=O)O)NC(=O)[C@H](CO)NC(=O)[C@H](C)NC(=O)[C@H](C)NC(=O)[C@H](C)NC(=O)[C@H](C)NC(=O)[C@H](CCCCN)NC(=O)[C@@H]1CCCN1C(=O)[C@H](CCCCN)NC(=O)[C@H](CCC(N)=O)NC(=O)[C@@H](N)CCC(=O)O)C(=O)N[C@H](C(=O)N[C@@H](C)C(=O)N[C@@H](CO)C(=O)N[C@@H](Cc1ccccc1)C(=O)N[C@@H](CC(N)=O)C(=O)N[C@@H](CCCCN)C(=O)N[C@@H](CCSC)C(=O)N[C@@H](CC(N)=O)C(=O)N[C@@H](CCCCN)C(=O)O)[C@@H](C)O [Hsl1 D box mutant] (H-EQKPKAAAASDITASFNKMNK-OH; N-terminus and C-terminus assumed),binding (in words),APC/C^Cdc20,No binding
same,Dwell Time (in words),APC/C^Cdc20; [3],no binding
same,Dwell Time (in words),APC/C^Cdc20; [4],no binding
same,Dwell Time (in words),APC/C^apo,no binding
CC[C@H](C)[C@H](NC(=O)[C@H](Cc1ccccc1)NC(=O)[C@H](CO)NC(=O)[C@H](CCCCN)NC(=O)[C@H](CO)NC(=O)[C@H](CCCNC(=N)N)NC(=O)[C@H](CC(N)=O)NC(=O)[C@H](CC(N)=O)NC(=O)[C@H](CC(=O)O)NC(=O)[C@H](CCCCN)NC(=O)[C@H](C)NC(=O)[C@H](C)NC(=O)[C@H](CC(C)C)NC(=O)[C@@H]1CCCN1C(=O)[C@H](CC(C)C)NC(=O)[C@H](CCCNC(=N)N)NC(=O)CNC(=O)[C@H](CCC(N)=O)NC(=O)[C@H](CCC(N)=O)NC(=O)[C@H](CCC(N)=O)NC(=O)[C@H](C)N)C(=O)N[C@@H](CCCCN)C(=O)O [ySecurin D box] (H-AQQQGRLPLAAKDNNRSKSFIK-OH; N-terminus and C-terminus assumed),Dwell Time,APC/C^Cdc20; [1],1.859 ± 0.041 s
same,Dwell Time,APC/C^Cdc20; [2],1.870 ± 0.035 s
same,mean dwell time,APC/C^Cdc20,1.87 ± 0.04 s and 1.87 s
same,fold higher affinity for APC/C^Cdc20,APC/C^Cdc20; vs APC/C^Cdh1,15 fold
same,Dwell Time (in words),APC/C^apo,no binding
"LIYVDKENGEPGTR-K(Cy5) [hSecurin KEN, Cy5-labeled KEN box peptide of human securin/Pttg1]",binding (in words),APC/C^Cdc20,No binding
same,Dwell Time (in words),APC/C^Cdc20; [3],no binding
same,Dwell Time (in words),APC/C^Cdc20; [4],no binding
same,Dwell Time (in words),APC/C^apo,no binding
"LPKATRKALGTVNRATEKSVK-K(Cy5) [AurKB D box, Cy5-labeled D box peptide of Aurora B kinase]",binding (in words),APC/C^Cdc20,No binding
same,Dwell Time (in words),APC/C^Cdc20; [3],no binding
same,Dwell Time (in words),APC/C^Cdc20; [4],no binding
same,Dwell Time (in words),APC/C^apo,no binding
"SKAAQFMLYEETAEERNI-K(Cy5) [Acm1 ABBA, Cy5-labeled Cdh1-specific ABBA motif from pseudosubstrate yeast protein Acm1]",binding (in words),APC/C^Cdc20,No binding
same,Dwell Time (in words),APC/C^Cdc20; [3],no binding
same,Dwell Time (in words),APC/C^Cdc20; [4],no binding
same,Dwell Time (in words),APC/C^apo,no binding
